Assay results taken from patent publication US8877719B2, “Pest controlling composition” (Sumitomo Chemical Company, Limited, priority 2009, dated 2014).

Experiments:
Format in all cases: in vivo
[1] = system: Spodoptera litura third-instar larvae; assay: Test Example 2: cabbage leaf immersion test, insecticidal ratio on Spodoptera litura third-instar larvae (spinetoram / spiromesifen); details: cabbage leaf immersed 60 seconds, four days after
Description: (§1) A flowable formulation containing 11.7 wt % of spinetoram (spinetoram J:spinetoram L=75:25 (weight ratio)) was diluted with water containing 0.02 vol % of a spreading agent (trade name: Sindain, manufactured by Sumitomo Chemical Co., Ltd.) so as to obtain a given concentration.
(§2) A flowable formulation containing 22.9 wt % of spiromesifen (trade name: CLEAZAR, manufactured by Bayer CropScience) was diluted with water containing 0.02 vol % of a spreading agent (trade name: Sindain, manufactured by Sumitomo Chemical Co., Ltd.) so as to obtain a given concentration.
The spinetoram water-diluted solution and spiromesifen water-diluted solution were mixed to prepare a test drug solution.
(§3) Cabbage was planted in a pot having a capacity of 860 ml and allowed to grow to 4-leaves stage. Leaves of the cabbage were cut one by one. One of the cabbage leaves was immersed in a test drug solution for 60 seconds. The cabbage leaf was air-dried, then, the cabbage leaf was placed in a cup having a capacity of 500 ml containing filter paper laid therein. Ten Spodoptera litura third-instar larvae were released in this cup. Four days after, life-or-death of the tested insects was observed. From the observed results, the insecticidal ratio was calculated in the same manner as in Test Example 1. The test was repeated three times.

[2] = system: Tetranychus urticae female adult insects; assay: Test Example 3: kidney bean leaf piece spray test, insecticidal ratio on Tetranychus urticae female adults; details: sprayed on kidney bean leaf pieces, three days after
Description: as §1
(§4) A flowable formulation containing 22.4 wt % of spirotetramat (trade name: Movento, manufactured by Bayer CropScience) was diluted with water containing 0.02 vol % of a spreading agent (trade name: Sindain, manufactured by Sumitomo Chemical Co., Ltd.) so as to obtain a given concentration.
as §2
These water-diluted solutions were mixed to prepare a test drug solution.
A kidney bean leaf piece having a diameter of about 2 cm was inoculated with 10 Tetranychus urticae female adult insects. Then, the test drug solution was sprayed in an amount of 0.3 ml per two pieces of the kidney bean leaves. Three days after, life-or-death of the female adult insects was observed. From the observed results, the insecticidal ratio was calculated in the same manner as in Test Example 1. The test was repeated three times.

[3] = system: Spodoptera litura third-instar larvae; assay: Test Example 1: cabbage leaf immersion test, insecticidal ratio on Spodoptera litura third-instar larvae (spinetoram / spirotetramat); details: cabbage leaf immersed 60 seconds, four days after
Description: as §1, §4
The spinetoram water-diluted solution and spirotetramat water-diluted solution were mixed to prepare a test drug solution.
as §3, with “The results were corrected by” for “From”, “following formula, thereby calculating” for “observed results, the”, “ratio.” for “ratio was calculated in the same manner as in Test Example 1.”, “times. Insecticidal ratio (%)=100×(Mt−Mc)/(100−Mc)” for “times.”
Mt: insect death ratio (%) in test compound-treated area
Mc: insect death ratio (%) in test compound-non-treated area

`Cc1cc(C)c(C2=C(OC(=O)CC(C)(C)C)C3(CCCC3)OC2=O)c(C)c1` [spiromesifen, 2-oxo-3-(2,4,6-trimethylphenyl)-1-oxaspiro[4,4]nona-3-en-4-yl 3,3-dimethylbutanoate] was tested, and the “Insecticidal ratio (%)” value ([1]; 112 ppm) was 3.4% and the “Insecticidal ratio (%)” value ([2]; 3.2 ppm) was 28.0%.

For spinetoram, the “Insecticidal ratio (%)” value ([3]; 0.73 ppm) was 17.2%, the “Insecticidal ratio (%)” value ([1]; 0.73 ppm) was 6.9% and the “Insecticidal ratio (%)” value ([2]; 12.5 ppm) was 28.4%.

In the case of `CCOC(=O)OC1=C(c2cc(C)ccc2C)C(=O)N[C@]12CC[C@@H](OC)CC2` [spirotetramat, cis-4-(ethoxycarbonyloxy)-8-methoxy-3-(2,5-xylyl)-1-azaspiro[4,5]dec-3-en-2-one], the “Insecticidal ratio (%)” value ([3]; 56 ppm) is reported as 10.3%, the “Insecticidal ratio (%)” value ([3]; 112 ppm) is reported as 20.7% and the “Insecticidal ratio (%)” value ([2]; 0.8 ppm) is reported as 0%.
